Reference: patent EP4650362A1, “NEUROPROTECTIVE PSD-95 POLYPEPTIDE INHIBITOR AND USE THEREOF” (Beijing Tuo Jie Biopharmaceutical Co. Ltd., priority 2023, dated 2024)
Where two headings read alike, the source gives them in different places. Non-standard residues stand in square brackets, D forms with d. Residues, ends and D or L forms follow the SMILES beside them. Tle = CC(C)(C)[C@H](N)C(=O)O; Dab = NCC[C@H](N)C(=O)O; Aib = CC(C)(N)C(=O)O

Key:
[1] = plasma stability test, rat plasma; type: in vitro ADME
Method: Solution preparation: An appropriate amount of a test polypeptide compound was weighed out and dissolved in an appropriate amount of 1× PBS to form a 1 mM test solution. NA-1 and NoNO42 were used as positive drugs, propantheline bromide was used as a human plasma test control, and lovastatin was used as a rat plasma test control. Plasma stability test: 12.5 µL of the 1 mM test solution was added to a 495 µL pre-incubated plasma sample. […] For each incubation time, two parallel samples were set. Subsequently, 200 µL of stop solution was added to stop the incubation, and the mixtures were vortexed for 5 min. Then the mixtures were centrifuged at 10,000 rpm at 4 °C for 10 min to remove the protein in the sample, and 70 µL of the supernatant was transferred to a new 96-well plate (70 µL of water was added to each well beforehand) and well mixed. […] Sample pretreatment: […] LC-MS analysis: […] (2) Mass-spectrometric conditions: The mass spectrometry analysis used an electrospray ionization (ESI) source, a positive ion analysis mode, and a multi-reaction monitoring (MRM) scan mode. […] The plasma stability of the polypeptide compound

[2] = pharmacokinetic study in rats, single intravenous bolus injection; type: in vivo, SD rats; conditions: for Cmax: read-out: Cmax
Method: With male SD rats as test animals, the pharmacokinetic behavior of polypeptide compounds administered via single intravenous bolus injection in rats (plasma) was studied.
Male SD rats weighing 170 to 200 grams and aged 4-6 weeks were purchased from Beijing Vital River Laboratory Animal Technology Co., Ltd. The polypeptide compounds were dissolved in 1× PBS, and the polypeptide compound solutions were then administered via intravenous bolus injection over 10 min at a dose of 3 nmol/g, with three animals per group. At each of the time points of 2 min, 8 min, 15 min, 30 min, 45 min, 60 min, and 120 min after the end of bolus injection, 0.2 mL of blood was collected and transferred to an EDTA-K2 anticoagulation centrifuge tube. The whole blood sample was centrifuged at 4 °C at 4000 g for 5 min, and a plasma sample was obtained by separation and cryopreserved at -80 °C.
The pharmacokinetic parameters of polypeptide compound 22, administered via intravenous bolus injection, in rats were determined using a similar method, with the difference being that an enzyme inhibitor was added immediately after blood collection.
The plasma concentrations of the test compounds were determined using the method in Test Example 3.4.3. Plasma concentration-time curves were plotted, and the pharmacokinetic parameters were calculated using PKSolver software. The experimental results are shown in Table 5-1, Table 5-2, and FIG. 3.

human whole blood = assay: hemolysis risk test in human whole blood; type: cell-based; conditions: for Hemolysis rate (%): Human, 37 °C 1 h
Method: This test example assessed whether a polypeptide compound causes hemolytic reactions in rat, rabbit, and human whole blood.
Preparation of red blood cell suspension: 100 µL of fresh whole blood was collected, and 900 µL of 1× PBS solution was then added. The mixture was shaken on a plate shaker at 30 rpm for 5 min and then centrifuged at 1000 g for 5 min, and the supernatant was discarded. The above washing step was repeated until the supernatant no longer appeared red. The suspension was set aside for later use.
Preparation of test polypeptide solutions: An appropriate amount of 1× PBS solution was added to a powdered polypeptide, and the polypeptide was dissolved to form a standard stock solution. […] Meanwhile, blank 1× PBS was used as a negative control, and a 1× PBS solution containing 0.1% Triton X-100 was used as a positive control.
Incubation: A test solution (500 µL) was added to the red blood cell suspension, and then the mixture was well shaken on a plate shaker at 30 rpm for 5 min, incubated at 37 °C for 1 h, and centrifuged at 1000 g for 5 min.
100 µL of the supernatant was transferred to a single well of a microplate. The absorbance at 540 nm was measured using a SpectraMax M5 microplate reader, and data analysis was performed using GraphPad Prism 9. The hemolysis rate (%) was calculated using the formula: (test sample absorbance - negative control absorbance) / (positive control absorbance - negative control absorbance) × 100%. A rate of less than 5% indicates the absence of hemolysis, while a rate of greater than 5% indicates the presence of hemolysis. Table 3. Testing of the hemolysis risk of the polypeptide compound

[3] = pharmacokinetic study in beagle dogs, single intravenous infusion; type: in vivo
Method: With standard beagle dogs as test animals, the pharmacokinetic behavior of a polypeptide compound administered via single intravenous infusion in beagle dogs (plasma) was studied.
For polypeptide compound 22, two dose groups were set: 1.2 nmol/g and 0.4 nmol/g. For NA-1, one dose group was set: 1.2 nmol/g. Each group consisted of four animals, with an equal number of males and females. The polypeptide compound was dissolved in 1× PBS, and the polypeptide compound solution was then administered via intravenous infusion over 10 min. The blood collection time points were as follows: before infusion (0 h), 5 min after the start of bolus injection, and 0 min, 2 min, 5 min, 10 min, 15 min, 30 min, 1 h, 2 h, 4 h, 8 h, and 24 h after the end of bolus injection. At each time point, 0.5 mL of blood was collected and transferred to an EDTA-K2 anticoagulation centrifuge tube. Meanwhile, 50 µL of a protease inhibitor was added. After thorough mixing, the mixture was centrifuged at 2000 g for 10 min (4 °C), and the plasma was separated within 1 h, aliquoted into cryopreservation tubes, and stored at -60 to -90 °C. The blood collection-to-centrifugation process was performed under ice bath conditions.
The plasma concentrations of the test compounds were determined using the method in Test Example 3.4.3. Plasma concentration-time curves were plotted, and the pharmacokinetic parameters were calculated using PKSolver software.

[4] = Rat plasma, 25 µM, 0min (standard 100%)
[5] = Rat plasma, 25 µM, 10min, read-out: Relative remaining compound content (%)
[6] = Rat plasma, 25 µM, 20min, read-out: Relative remaining compound content (%)
[7] = Rat plasma, 25 µM, 30min, read-out: Relative remaining compound content (%)
[8] = Rat plasma, 25 µM, 60min, read-out: Relative remaining compound content (%)
[9] = male, SD, rat, plasma, rats, intravenous bolus injection over 10 min, 3 nmol/g, n = 3
[10] = male, SD, rat, plasma, 3 nmol/g, rats, intravenous bolus injection, enzyme inhibitor added immediately after blood collection, n = 3
[11] = rats, intravenous bolus injection, enzyme inhibitor added (Table 5-2)
[12] = beagle dogs, intravenous infusion over 10 min, 0.4 nmol/g, Male
[13] = beagle dogs, intravenous infusion over 10 min, 1.2 nmol/g, Female
[14] = beagle dogs, intravenous infusion over 10 min, 1.2 nmol/g, Male
[15] = dog, plasma, beagle dogs, intravenous infusion over 10 min, 0.4 nmol/g, Female
[16] = dog, plasma, beagle dogs, intravenous infusion over 10 min, 0.4 nmol/g, Male
[17] = dog, plasma, beagle dogs, intravenous infusion over 10 min, 1.2 nmol/g, Female
[18] = dog, plasma, beagle dogs, intravenous infusion over 10 min, 1.2 nmol/g, Male

## CC[C@H](C)[C@H](NC(=O)[C@H](CO)NC(=O)[C@H](CO)NC(=O)[C@H](CC(C)C)NC(=O)[C@@H](CCCCN)NC(=O)[C@H](CCCNC(=N)N)NC(=O)[C@H](CCCNC(=N)N)NC(=O)[C@@H](CCCNC(=N)N)NC(=O)[C@H](CCC(N)=O)NC(=O)[C@@H](CCCNC(=N)N)NC(=O)[C@H](CCCNC(=N)N)NC(=O)[C@H](CCCCN)NC(=O)[C@H](CCCCN)NC(=O)[C@@H](CCCNC(=N)N)NC(=O)CNC(=O)[C@@H](N)Cc1ccc(O)cc1)C(=O)N[C@@H](CCC(=O)O)C(=O)N[C@@H](CO)C(=O)N[C@@H](CC(=O)O)C(=O)N[C@H](C(=O)O)C(C)C [NoNO42, YGrKKRrQrRRkLSSIESDV, reference compound] (H-YG[dR]KKR[dR]Q[dR]RR[dK]LSSIESDV-OH)
[1]; rat, plasma
  remaining at 10 min, 25 µM: 98.4%
  remaining at 20 min, 25 µM: 93.6%
  remaining at 0.5 h, 25 µM: 93.6%
  remaining at 1 h, 25 µM: 90.8%
  remaining at 2 h, 25 µM: 95%
[2]; male, SD, rat, in vivo, iv
  half-life: 0.04 h
[2]; rat, in vivo, iv
  AUClast/dose: 25
  half-lives: less than 3 min

## CC(C)[C@H](NC(=O)[C@H](CC(=O)O)NC(=O)[C@@H](NC(=O)[C@@H](NC(=O)[C@@H](NC(=O)[C@@H](NC(=O)[C@H](CCN)NC(=O)C(C)(C)NC(=O)CNC(=O)[C@@H](CCCNC(=N)N)NC(=O)[C@@H](CCCNC(=N)N)NC(=O)[C@@H](CCCNC(=N)N)NC(=O)[C@@H](CCC(N)=O)NC(=O)[C@@H](CCCNC(=N)N)NC(=O)[C@@H](CCCNC(=N)N)NC(=O)[C@@H](CCCCN)NC(=O)[C@@H](CCCCN)NC(=O)[C@@H](CCCNC(=N)N)NC(=O)CNC(=O)[C@H](N)Cc1ccc(O)cc1)[C@@H](C)O)C(C)(C)C)C(C)(C)C)[C@@H](C)O)C(=O)O [Polypeptide compound 14, y-G-r-k-k-r-r-q-r-r-r-G-Aib-Dab-T-Tle-Tle-T-D-V] (H-[dY]G[dR][dK][dK][dR][dR][dQ][dR][dR][dR]G[Aib][Dab]T[Tle][Tle]TDV-OH)
[1]; [4]
  Relative remaining compound content (%): 100.0%
[1]; [5]
  remaining at 10 min, 25 µM: 105%
[1]; [6]
  remaining at 20 min, 25 µM: 117%
[1]; [7]
  remaining at 0.5 h, 25 µM: 107%
[1]; [8]
  remaining at 1 h, 25 µM: 109%
[1]; Rat plasma, 25 µM, 120min, read-out: Relative remaining compound content (%)
  remaining at 2 h, 25 µM: 104%
[2]; [9]
  AUC(0-inf): 9900 ng·h/mL
  MRT: 1.19 h
  Cmax: 15100 ng/mL
[2]; male, SD, rat, plasma, rats, intravenous bolus injection over 10 min, 3 nmol/g, n = 3, read-out: AUC(0-t)
  AUC(0-t): 7910 ng·h/mL
[2]; male, SD, rat, plasma, rats, intravenous bolus injection over 10 min, 3 nmol/g, n = 3, read-out: T1/2 (converted)
  half-life: 0.94 h
[2]; rats, intravenous bolus injection over 10 min, 3 nmol/g, n = 3
  AUClast/dose: 1041
Human whole blood; 1.0 µM
  Hemolysis rate (%): 0.09%
Human whole blood; 2.5 µM
  Hemolysis rate (%): 0.38%
Human whole blood; 5.0 µM
  Hemolysis rate (%): 0.15%
Human whole blood; 10 µM
  Hemolysis rate (%): 0.31%
Human whole blood; 25 µM
  Hemolysis rate (%): 0.08%
Human whole blood; 50 µM
  Hemolysis rate (%): 0.53%
Human whole blood; human whole blood, concentration range of 1 to 50 µM
  hemolysis rates: less than 5%

## CC(C)[C@H](NC(=O)[C@H](CC(=O)O)NC(=O)[C@@H](NC(=O)[C@@H](NC(=O)[C@@H](NC(=O)[C@@H](NC(=O)[C@H](CCN)NC(=O)C(C)(C)NC(=O)CNC(=O)[C@@H](CCCNC(=N)N)NC(=O)[C@H](CCCNC(=N)N)NC(=O)[C@H](CCCNC(=N)N)NC(=O)[C@H](CCC(N)=O)NC(=O)[C@@H](CCCNC(=N)N)NC(=O)[C@H](CCCNC(=N)N)NC(=O)[C@H](CCCCN)NC(=O)[C@H](CCCCN)NC(=O)[C@H](N)CCCNC(=N)N)[C@@H](C)O)C(C)(C)C)C(C)(C)C)[C@@H](C)O)C(=O)O [Polypeptide compound 22, r-K-K-R-r-Q-R-R-r-G-Aib-Dab-T-Tle-Tle-T-D-V] (H-[dR]KKR[dR]QRR[dR]G[Aib][Dab]T[Tle][Tle]TDV-OH)
[1]; [4]
  Relative remaining compound content (%): 100.0%
[1]; [5]
  remaining at 10 min, 25 µM: 116%
[1]; [6]
  remaining at 20 min, 25 µM: 105%
[1]; [7]
  remaining at 0.5 h, 25 µM: 110%
[1]; [8]
  remaining at 1 h, 25 µM: 102%
[1]; Rat plasma, 25 µM, 120min
  Relative remaining compound content (%): 124.8%
[2]; male, SD, rat, in vivo, 3 nmol/g, rats, intravenous bolus injection, enzyme inhibitor added immediately after blood collection, n = 3
  AUC(0-inf): 24300 ng·h/mL
[2]; [10]
  MRT: 1.77 h
  Tmax: 0.36 h
  Cmax: 16900 ng/mL
[2]; male, SD, rat, plasma, 3 nmol/g, rats, intravenous bolus injection, enzyme inhibitor added immediately after blood collection, n = 3, read-out: T1/2 (converted)
  half-life: 1.16 h
[2]; [11]
  area under the curve (AUC) increase compared to NA-1: 19.4 fold
  half-life increase compared to NA-1: 29 fold
  maximum plasma concentration (Cmax) increase compared to NA-1: 2.3 fold
[2]; rats, intravenous bolus injection, enzyme inhibitor added immediately after blood collection, n = 3
  AUClast/dose: 2239.6
[3]; beagle dogs, intravenous infusion over 10 min, 0.4 nmol/g, Female
  AUClast/dose: 5730
[3]; [12]
  AUClast/dose: 4513
  Tmax: 0.17 h
[3]; [13]
  AUClast/dose: 6558
  T1/2: 4.25 h
[3]; [14]
  AUClast/dose: 8183
  T1/2: 5.90 h
  Tmax: 0.18 h
[3]; both sexes, beagle, dog, in vivo, iv, dogs, same dose (1.2 nmol/g), read-out: average T1/2 (converted)
  half-life: 5.1 h
[3]; [15]
  AUC(0-inf): 5890 ng·h/mL
  Cmax: 3930 ng/mL
  MRT: 3.66 h
[3]; dog, plasma, beagle dogs, intravenous infusion over 10 min, 0.4 nmol/g, Female, read-out: T1/2 (converted)
  half-life: 2.84 h
[3]; dog, plasma, beagle dogs, intravenous infusion over 10 min, 0.4 nmol/g, Female, read-out: Tmax
  Tmax: 0.17 h
[3]; [16]
  AUC(0-inf): 5170 ng·h/mL
  Cmax: 2320 ng/mL
  MRT: 4.61 h
[3]; dog, plasma, beagle dogs, intravenous infusion over 10 min, 0.4 nmol/g, Male, read-out: T1/2 (converted)
  half-life: 3.36 h
[3]; [17]
  AUC(0-inf): 18000 ng·h/mL
  Cmax: 8130 ng/mL
  MRT: 4.91 h
[3]; dog, plasma, beagle dogs, intravenous infusion over 10 min, 1.2 nmol/g, Female, read-out: Tmax
  Tmax: 0.18 h
[3]; [18]
  AUC(0-inf): 23500 ng·h/mL
  Cmax: 7680 ng/mL
  MRT: 7.03 h
[3]; dogs, same dose (1.2 nmol/g)
  average AUC, times that of NA-1: 21.3 times
  average Cmax, times that of NA-1: 1.3 times
